The text below walks through data of publication PMC11494293, “Biochemical and structural insights into a 5’ to 3’ RNA ligase reveal a potential role in tRNA ligation” (Proceedings of the National Academy of Sciences of the …, 2024).

The assay deals with T1, YspRLIG1 (Yasminevirus RLIG1) (Yasminevirus sp. GU-2018, UniProt A0A5K0UB63).
T1 construct: gene YASMINEVIRUS_1364; minimal RNA ligase (NTase) fold; active-site Lys73
T1 sequence (A0A5K0UB63 1-276): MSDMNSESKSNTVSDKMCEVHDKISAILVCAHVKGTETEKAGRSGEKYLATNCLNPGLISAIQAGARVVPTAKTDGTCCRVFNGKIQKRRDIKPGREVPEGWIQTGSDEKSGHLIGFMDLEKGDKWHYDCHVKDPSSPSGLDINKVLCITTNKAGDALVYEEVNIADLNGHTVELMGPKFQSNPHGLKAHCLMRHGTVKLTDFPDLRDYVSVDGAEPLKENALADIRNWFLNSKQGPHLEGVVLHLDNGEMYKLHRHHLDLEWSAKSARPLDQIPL
As to the kind of experiment: X-ray crystal structure. Type of assay: binding. As to conditions: crystallised in the presence of ATP, active site, either AMP or ADP modelled.

Consider `Nc1ncnc2c1ncn2[C@@H]1O[C@H](COP(=O)(O)O)[C@@H](O)[C@H]1O` [AMP], for which the X-ray crystal structure result (WT protein adenylated) was “In the WT structure, either AMP or ADP was modeled in the active site”.

In the case of `Nc1ncnc2c1ncn2[C@@H]1O[C@H](COP(=O)(O)OP(=O)(O)O)[C@@H](O)[C@H]1O` [ADP], the X-ray crystal structure entry is reported as “In the ADP-bound YspRLIG1^WT structure, the O5-Pα bond is rotated”.
